Results as given in PubChem BioAssay AID743388 (Vanderbilt Specialized Chemistry Center, 2014).
“And” between values parts separate entries of the source, which are not always exact repeats. Identical values can stand only once. The source made the active and inactive calls. How the calls were made is not given here.

The compounds below were run against Phospholipase D1 (Homo sapiens) (UniProt Q13393) (assay: PLD1-selective inhibitors in cells (AID 743388)). Conditions: Calu-1 cells, PMA-stimulated, PtdBuOH-d9 by mass spectrometry, 30 min; at 20 µM; stronger effect = higher value.
Chain of Phospholipase D1 (Homo sapiens) (Q13393 whole entry, looked up): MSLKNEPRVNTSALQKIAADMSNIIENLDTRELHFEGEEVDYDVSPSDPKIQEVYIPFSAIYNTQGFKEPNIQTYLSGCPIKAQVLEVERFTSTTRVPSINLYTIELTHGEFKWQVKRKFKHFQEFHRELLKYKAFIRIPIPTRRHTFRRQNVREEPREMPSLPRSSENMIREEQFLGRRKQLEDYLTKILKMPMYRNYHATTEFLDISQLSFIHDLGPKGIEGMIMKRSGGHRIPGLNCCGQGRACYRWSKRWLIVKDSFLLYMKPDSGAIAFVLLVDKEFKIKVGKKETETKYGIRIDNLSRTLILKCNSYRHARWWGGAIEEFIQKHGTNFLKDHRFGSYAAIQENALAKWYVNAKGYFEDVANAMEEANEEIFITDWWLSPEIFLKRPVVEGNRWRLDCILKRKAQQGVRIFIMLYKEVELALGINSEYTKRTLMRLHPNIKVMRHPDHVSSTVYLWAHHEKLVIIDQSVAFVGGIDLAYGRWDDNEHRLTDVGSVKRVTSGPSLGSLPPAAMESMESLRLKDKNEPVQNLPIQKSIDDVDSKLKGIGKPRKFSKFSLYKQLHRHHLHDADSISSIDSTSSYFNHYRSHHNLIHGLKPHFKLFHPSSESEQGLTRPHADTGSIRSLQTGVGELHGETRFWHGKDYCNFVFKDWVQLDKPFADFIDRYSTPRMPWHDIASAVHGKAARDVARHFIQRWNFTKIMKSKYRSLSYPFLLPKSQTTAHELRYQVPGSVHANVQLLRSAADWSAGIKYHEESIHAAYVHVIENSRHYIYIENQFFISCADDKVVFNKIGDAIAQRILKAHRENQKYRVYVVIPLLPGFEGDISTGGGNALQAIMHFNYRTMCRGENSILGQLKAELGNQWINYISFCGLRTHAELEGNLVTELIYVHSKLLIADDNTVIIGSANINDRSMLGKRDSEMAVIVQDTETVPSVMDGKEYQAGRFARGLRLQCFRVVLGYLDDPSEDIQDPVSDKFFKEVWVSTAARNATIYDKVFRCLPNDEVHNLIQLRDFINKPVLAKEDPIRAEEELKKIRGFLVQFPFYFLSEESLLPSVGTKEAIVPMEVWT
`O=C(NCCN1CCC2(CC1)C(=O)NCN2c1cccnc1)c1ccc(Br)cc1` was tested, and the inhibition was 0% (inactive). In the case of `O=C(NCCN1CCC2(CC1)C(=O)NCN2Cc1cccnc1)c1ccc(F)cc1F`, the inhibition is reported as 7% (inactive). For `O=C(NCCN1CCC2(CC1)C(=O)NCN2C(=O)c1ccccc1)c1ccc2ccccc2c1`, the inhibition was 45% (inactive). `O=C(NCCN1CCC2(CC1)C(=O)NCN2Cc1cccnc1)c1ccc(F)cc1` was tested, and the inhibition was 3% (inactive). Work on `O=C(NCCN1CCC2(CC1)C(=O)NCN2Cc1ccc(Cl)cc1)c1ccc2ccccc2c1` yielded an inhibition of 64%. For `O=C(NCCN1CCC2(CC1)C(=O)NCN2Cc1cccnc1)c1ccc(Br)cc1`, the inhibition was 9% (inactive). For `O=C(NCCN1CCC2(CC1)C(=O)NCN2Cc1cccnc1)c1ccc(F)cc1Cl`, the inhibition was 0% (inactive). For `O=C(NCCN1CCC2(CC1)C(=O)NCN2Cc1cccnc1)c1nc(-c2ccc(F)cc2)no1`, the inhibition was 30% (inactive). In the case of `O=C(NCCN1CCC2(CC1)C(=O)NCN2Cc1cccnc1)c1ccc2ccccc2n1`, the inhibition is reported as 11% (inactive). With `O=C(NCCN1CCC2(CC1)C(=O)NCN2Cc1cccnc1)c1cc(F)c(F)c(F)c1` the inhibition was 0% (inactive). With `O=C(NCCN1CCC2(CC1)C(=O)NCN2c1cncc(F)c1)c1ccc(Br)cc1` the inhibition was 12% (inactive). In the case of `O=C(NCCN1CCC2(CC1)C(=O)NCN2c1cccnc1)c1ccc2ccccc2c1`, the inhibition is reported as 7% (inactive). With `O=C(NCCN1CCC2(CC1)C(=O)NCN2c1cncc(F)c1)c1ccc(F)c(F)c1` the inhibition was 17% (inactive). `O=C(NCCN1CCC2(CC1)C(=O)NCN2c1cccnc1)c1ccc(F)c(F)c1` was tested, and the inhibition was 16% (inactive). In the case of `O=C(NCCN1CCC2(CC1)C(=O)NCN2c1ccc(C(F)(F)F)nc1)c1ccc2ccccc2c1`, the inhibition is reported as 2% (inactive). For `O=C(NCCN1CCC2(CC1)C(=O)NCN2Cc1cccnc1)c1cccc2cccnc12`, the inhibition was 4% (inactive). For `O=C(NCCN1CCC2(CC1)C(=O)NCN2Cc1cccnc1)c1ccccc1F`, the inhibition was 0% (inactive). With `O=C(NCCN1CCC2(CC1)C(=O)NCN2Cc1cccc(OC(F)(F)F)c1)c1ccc2ccccc2c1` the inhibition was 10% (inactive). For `O=C(NCCN1CCC2(CC1)C(=O)NCN2Cc1cccnc1)c1c[nH]c2ccccc12`, the inhibition was 25% (inactive). With `O=C(NCCN1CCC2(CC1)C(=O)NCN2c1cncc(Br)c1)c1ccc2ccccc2c1` the inhibition was 9% (inactive). For `O=C(NCCN1CCC2(CC1)C(=O)NCN2c1cncc(F)c1)c1cc(F)c(F)c(F)c1`, the inhibition was 17% (inactive). `O=C(NCCN1CCC2(CC1)C(=O)NCN2Cc1cccnc1)c1cc2ccccc2[nH]1` showed an inhibition of 64%. For `Cc1cc(Br)cnc1C(=O)NCCN1CCC2(CC1)C(=O)NCN2Cc1cccnc1`, the inhibition was 0% (inactive). With `O=C(NCCN1CCC2(CC1)C(=O)NCN2Cc1cccnc1)c1ccc2c(c1)C(=O)NC2=O` the inhibition was 13% (inactive). In the case of `O=C(NCCN1CCC2(CC1)C(=O)NCN2Cc1cccnc1)c1sc2ncccc2c1-n1cccc1`, the inhibition is reported as 29% (inactive). With `O=C(NCCN1CCC2(CC1)C(=O)NCN2c1cccnc1)c1cc(F)c(F)c(F)c1` the inhibition was 6% (inactive). `O=C(NCCN1CCC2(CC1)C(=O)NCN2Cc1cccnc1)c1cccc(C(F)(F)F)c1` was tested, and the inhibition was 0% (inactive). Work on `O=C(NCCN1CCC2(CC1)C(=O)NCN2Cc1ccccc1Cl)c1ccc2ccccc2c1` yielded an inhibition of 91%. For `O=C(NCCN1CCC2(CC1)C(=O)NCN2Cc1ccccc1Br)c1ccc2ccccc2c1`, the inhibition was 96%. With `O=C(NCCN1CCC2(CC1)C(=O)NCN2Cc1cccnc1)c1c(Cl)cncc1Cl` the inhibition was 20% (inactive). Compound `O=C(NCCN1CCC2(CC1)C(=O)NCN2Cc1ccccc1)c1ccc2ccccc2c1` has an inhibition of 72%. For `O=C(NCCN1CCC2(CC1)C(=O)NCN2Cc1cccnc1)c1ccc2cc(F)ccc2c1`, the inhibition was 9% (inactive). `O=C(NCCN1CCC2(CC1)C(=O)NCN2Cc1cccnc1)c1cccc(F)c1` was tested, and the inhibition was 2% (inactive). `COc1cccc(C(=O)N2CNC(=O)C23CCN(CCNC(=O)c2ccc4ccccc4c2)CC3)c1` showed an inhibition of 50%. With `O=C(NCCN1CCC2(CC1)C(=O)NCN2Cc1cccnc1)c1ccc(F)c(F)c1` the inhibition was 3% (inactive). Compound `O=C(NCCN1CCC2(CC1)C(=O)NCN2C(=O)C1CC1)c1ccc2ccccc2c1` has an inhibition of 83%. With `O=C(NCCN1CCC2(CC1)C(=O)NCN2c1cncc(F)c1)c1ccc2ccccc2c1` the inhibition was 14% (inactive). `O=C(NCCN1CCC2(CC1)C(=O)NCN2Cc1cccnc1)c1ccc(SC(F)(F)F)cc1` was tested, and the inhibition was 5% (inactive). With `O=C(NCCN1CCC2(CC1)C(=O)NCN2c1ccnc(F)c1)c1ccc2ccccc2c1` the inhibition was 3% (inactive). For `O=C(NCCN1CCC2(CC1)C(=O)NCN2Cc1cccnc1)c1cc2cc(F)ccc2[nH]1`, the inhibition was 4% (inactive). In the case of `O=C(NCCN1CCC2(CC1)C(=O)NCN2Cc1cccnc1)c1cc(F)cc(F)c1`, the inhibition is reported as 0% (inactive). `O=C(NCCN1CCC2(CC1)C(=O)NCN2Cc1cccc2ccccc12)c1ccc2ccccc2c1` was tested, and the inhibition was 94%. Compound `O=C(NCCN1CCC2(CC1)C(=O)NCN2C(=O)c1cccc(F)c1)c1ccc2ccccc2c1` has an inhibition of 50%. In the case of `O=C(NCCN1CCC2(CC1)C(=O)NCN2c1cncc(F)c1)c1cc2cc(F)ccc2[nH]1`, the inhibition is reported as 26% (inactive). In the case of `O=C(NCCN1CCC2(CC1)C(=O)NCN2Cc1cccnc1)c1ccc2ccccc2c1Br`, the inhibition is reported as 10% (inactive). In the case of `Cc1ccc(S(=O)(=O)NCCN2CCC3(CC2)C(=O)NCN3Cc2cccnc2)cc1`, the inhibition is reported as 0% (inactive). In the case of `O=C(NCCN1CCC2(CC1)C(=O)NCN2Cc1cccnc1)c1ccc(C(F)(F)F)cc1`, the inhibition is reported as 0% (inactive). `O=C(NCCN1CCC2(CC1)C(=O)NCN2Cc1cccnc1)[C@@H]1C[C@H]1c1ccccc1` was tested, and the inhibition was 23% (inactive). For `Cc1cc(N2CNC(=O)C23CCN(CCNC(=O)c2ccc4ccccc4c2)CC3)ccn1`, the inhibition was 7% (inactive). With `O=C(NCCN1CCC2(CC1)C(=O)NCN2c1ccnc(Cl)c1)c1ccc2ccccc2c1` the inhibition was 0% (inactive). With `O=C(NCCN1CCC2(CC1)C(=O)NCN2Cc1ccccc1F)c1ccc2ccccc2c1` the inhibition was 77% and 87%. `O=C(NCCN1CCC2(CC1)C(=O)NCN2Cc1cccnc1)c1ccc(F)cc1C(F)(F)F` was tested, and the inhibition was 0% (inactive). With `O=C(NCCN1CCC2(CC1)C(=O)NCN2c1cccnc1)c1cc2cc(F)ccc2[nH]1` the inhibition was 9% (inactive). Compound `O=C(NCCN1CCC2(CC1)C(=O)NCN2Cc1ccccn1)c1ccc2ccccc2c1` has an inhibition of 88%. `O=C(NCCN1CCC2(CC1)C(=O)NCN2Cc1cccnc1)c1ccc(Cl)cc1F` was tested, and the inhibition was 0% (inactive). Work on `O=C(NCCN1CCC2(CC1)C(=O)NCN2Cc1ccncc1)c1ccc2ccccc2c1` yielded an inhibition of 53%. For `O=C(NCCN1C=CC2(CC1)C(=O)NCN2Cc1cccnc1)c1cccc2nsnc12` (stereo not drawn), the inhibition was 9% (inactive). For `O=C(NCCN1CCC2(CC1)C(=O)NCN2Cc1cccnc1)c1nccc2ccccc12`, the inhibition was 0% (inactive). In the case of `COc1cc(C(=O)NCCN2CCC3(CC2)C(=O)NCN3Cc2cccnc2)cc(OC)c1OC`, the inhibition is reported as 0% (inactive). In the case of `O=C(NCCN1CCC2(CC1)C(=O)NCN2Cc1cccnc1)c1ccc(Cl)cc1Cl`, the inhibition is reported as 0% (inactive). In the case of `O=C(NCCN1CCC2(CC1)C(=O)NCN2Cc1cccnc1)c1c(F)ccc(Cl)c1F`, the inhibition is reported as 0% (inactive). `O=C(NCCN1CCC2(CC1)C(=O)NCN2Cc1cccnc1)c1cc2ccccc2o1` was tested, and the inhibition was 14% (inactive). With `O=C(NCCN1CCC2(CC1)C(=O)NCN2c1cccnc1)c1ccc(F)cc1` the inhibition was 7% (inactive). For `O=C(NCCN1CCC2(CC1)C(=O)NCN2Cc1cccnc1)c1ccc2ccccc2c1`, the inhibition was 37% (inactive) and 38% (inactive). `O=C(NCCN1CCC2(CC1)C(=O)NCN2Cc1cccc(Cl)c1)c1ccc2ccccc2c1` showed an inhibition of 89%. With `O=C(NCCN1CCC2(CC1)C(=O)NCN2CC1CC1)c1ccc2ccccc2c1` the inhibition was 43% (inactive). With `O=C(NCCN1CCC2(CC1)C(=O)NCN2Cc1cccnc1)c1ccc(Cl)c(Cl)c1` the inhibition was 13% (inactive). `O=C(NCCN1CCC2(CC1)C(=O)NCN2C(=O)C1CCC1)c1ccc2ccccc2c1` gave an inhibition of 80%. `O=C(NCCN1CCC2(CC1)C(=O)NCN2Cc1cccnc1)c1cccs1` was tested, and the inhibition was 3% (inactive). With `Cn1cc(C(=O)NCCN2CCC3(CC2)C(=O)NCN3Cc2cccnc2)c2ccccc21` the inhibition was 5% (inactive). `Cn1c(C(=O)NCCN2CCC3(CC2)C(=O)NCN3Cc2cccnc2)cc2ccccc21` was tested, and the inhibition was 10% (inactive). In the case of `O=C(NCCN1CCC2(CC1)C(=O)NCN2c1cncc(F)c1)c1ccc(F)cc1`, the inhibition is reported as 25% (inactive). With `O=C(NCCN1CCC2(CC1)C(=O)NCN2Cc1cccnc1)c1cc2cccnc2[nH]1` the inhibition was 16% (inactive). In the case of `Cc1cc(C)c2cc(C(=O)NCCN3CCC4(CC3)C(=O)NCN4Cc3cccnc3)[nH]c2c1`, the inhibition is reported as 13% (inactive). `O=C(NCCN1CCC2(CC1)NCNC2=O)c1ccc2ccccc2c1` was tested, and the inhibition was 7% (inactive). With `O=C(NCCN1CCC2(CC1)C(=O)NCN2Cc1cccnc1)c1ccnc2ccccc12` the inhibition was 13% (inactive). With `Cc1nc2sc(C(=O)NCCN3CCC4(CC3)C(=O)NCN4Cc3cccnc3)c(N)c2c(C)c1C` the inhibition was 9% (inactive). `O=C(NCCN1CCC2(CC1)C(=O)NCN2Cc1cccnc1)c1cccc(Cl)c1` was tested, and the inhibition was 0% (inactive).
